# Measurements: article PMC11820736, “Design, Synthesis, and Anti-Tyrosinase, Anti-Melanogenic, and Antioxidant Activities of Novel (Z)-3-Benzyl-5-Benzylidene-2-Thioxothiazolidin-4-One Analogs” (Molecules, 2025)
# Tests used:
# [1] = target: T1, B16F10 cellular tyrosinase (Mus musculus, UniProt P11344); test: Cellular tyrosinase activity measurement in B16F10 cells; type: cell-based, murine; conditions: α-MSH + IBMX, 72 h
# T1 construct: endogenous in cells; host or cells: B16F10 murine melanoma cells stimulated with α-MSH and IBMX
# T1 sequence (P11344 19-533): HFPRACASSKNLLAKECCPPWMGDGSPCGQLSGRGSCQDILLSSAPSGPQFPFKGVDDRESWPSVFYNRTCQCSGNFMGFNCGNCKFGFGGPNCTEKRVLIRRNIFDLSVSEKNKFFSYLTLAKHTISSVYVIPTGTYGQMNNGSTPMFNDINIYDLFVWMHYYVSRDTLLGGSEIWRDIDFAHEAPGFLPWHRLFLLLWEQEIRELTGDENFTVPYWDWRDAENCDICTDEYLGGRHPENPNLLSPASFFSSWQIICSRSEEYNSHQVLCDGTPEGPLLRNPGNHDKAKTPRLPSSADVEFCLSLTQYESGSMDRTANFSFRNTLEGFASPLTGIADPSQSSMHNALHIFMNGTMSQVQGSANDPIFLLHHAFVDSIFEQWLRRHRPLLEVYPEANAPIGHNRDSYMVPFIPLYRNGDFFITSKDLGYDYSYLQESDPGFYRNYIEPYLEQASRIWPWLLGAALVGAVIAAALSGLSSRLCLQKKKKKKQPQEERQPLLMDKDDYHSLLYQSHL
# Description: The cellular tyrosinase inhibitory activity of the test samples was determined by measuring their optical density at 475 nm 72 h after test sample treatment.
# B16F10 cells were seeded at a density of 5000 per well of a 6-well plate, and the plate was cultivated under normal cell culture conditions for 24 h. […] Stimulators (200 μM IBMX and 1 μM α-MSH) were added to each well and cultivated for 72 h under normal cell culture conditions. To determine cellular tyrosinase activity, the cells were washed twice with PBS, treated with lysis buffer solution (100 μL) comprising 50 mM phosphate buffer (pH 6.5) (90 μL), 2 mM phenylmethanesulfonyl fluoride (5 μL), and 20% Triton X-100 (5 μL), and incubated at −80 °C for 30 min. After centrifugation (10,000× g, 4 °C, and 10 min), the supernatants (80 μL each) were transferred to each well of a 96-well plate, then 10 mM L-DOPA (20 μL) was added to each well. The absorbance was measured at 475 nm at 1 min intervals for 10 min using a VE microplate reader to determine cellular tyrosinase activity.
# B16F10 cell tyrosinase = target: T2, B16F10 cell tyrosinase (Mus musculus, UniProt P11344); test: In situ cellular tyrosinase activity in B16F10 cells (L-DOPA staining); type: cell-based, murine
# T2 construct: endogenous in cells; host or cells: B16F10 murine melanoma cells stimulated with α-MSH and IBMX
# T2 sequence (P11344 19-533): T1 sequence (P11344 19-533)
# Description: To identify the in situ cellular tyrosinase inhibitory activity of analogs 1 and 3, B16F10 cells and L-DOPA were used as the experimental target cells and substrate for melanin synthesis, respectively. […] B16F10 cells were photographed after 2 h of treatment with excess L-DOPA, and the darkness of the cells was measured using the CS analyzer program (ATTO, Tokyo, Japan). Analogs 1 and 3 were used at 2, 5, and 10 μM.
# After 1 h, the cells were exposed to 1 μM α-MSH and 200 μM IBMX and cultivated under normal cell culture conditions for 72 h. Cultured cells were fixed using a 4% paraformaldehyde solution for 40 min, washed twice with PBS, and permeabilized using 0.1% Triton X-100 for 2 min. L-DOPA solution (2 mM; 500 μL) was added to each well after washing twice with PBS. After the plate was placed for 2 h at 37 °C, the images for cell staining were acquired using a camera attached to a microscope (Motic, Hong Kong).
# [2] = ROS-scavenging activity (SIN-1, DCFH); conditions: 40 μM, SIN-1 10 μM
# Description: UV-A radiation induces ROS generation substantially, and oxidative stress accelerates melanin formation in organisms. Thus, the ROS-scavenging ability of (Z)-BBTT analogs was examined to determine whether these analogs have an auxiliary ability to scavenge ROS. 3-Morpholinosydnonimine (SIN-1; 10 μM) was used as a ROS generating substance, and Trolox (40 μM) was used as a positive reference standard.
# The test samples ((Z)-BBTT analogs 1–12 and Trolox [positive reference standard]) and 3-morpholinosydnonimine (SIN-1) were dissolved in DMSO and PBS, respectively. To prepare 2′,7′-dichlorodihydrofluorescein (DCFH) solution, PBS (50 mM; 4.9 mL, pH 7.4) and DCFH diacetate (2.5 mM; 0.05 mL) were mixed with esterase (15 units/10 mL; 0.05 mL). After storage for 30 min at 20 °C, the mixture was placed in the dark until further use. SIN-1 (10 µL) was added to each well of a 96-well black plate containing PBS (180 µL) and test sample (10 µL), and the plate was placed in the dark for 5 min. The prepared DCFH solution (50 µL) was added to each well of the black plate. The fluorescence of each well was recorded at 535 nm using a microplate reader (Berthold Advances GmbH & Co., Bad Wildbad, Germany) at an excitation wavelength of 485 nm. The test samples and SIN-1 were tested at final concentrations of 40 and 10 μM, respectively.
# [3] = ABTS cation radical scavenging activity; conditions: 100 μM, 2 min in the dark
# Description: To measure the scavenging effects of analogs 1–12 on ABTS^+ radicals, ABTS was initially treated with potassium persulfate to yield ABTS^•+. The formed ABTS^+ radical solution was mixed with test samples (analogs 1–12 and Trolox [positive reference standard]; final concentration: 100 μM), and absorbance was measured at 732 nm after storing for 2 min in the dark to determine %ABTS^•+-scavenging ability.
# ABTS^•+ was prepared by mixing equal amounts of ABTS (14 mM in H2O) and K2S2O8 (4.9 mM in H2O) and storing in the dark at 20 °C for 16 h. Prior to use, the absorbance of the prepared ABTS^•+ solution was adjusted to 0.7 ± 0.02 at 732 nm by dilution with methanol. A cosolvent (EtOH:DMSO = 10:1 [v/v]) was used to prepare solutions of the test samples (analogs 1–12 and Trolox [positive reference standard]). All test samples were used at a final concentration of 100 μM. The test sample solution (10 μL) was mixed with the adjusted ABTS^•+ solution (90 μL) in each well of a 96-well plate, and the mixture was kept in the dark at 20 °C for 2 min. The absorbance was recorded at 732 nm at 1 min intervals for 10 min using a VE microplate reader. The percentage of radical-scavenging activity was calculated using the formula % radical-scavenging activity = [(Abscontrol − Abssample)/Abscontrol] × 100, where Abssample and Abscontrol are absorbances of the sample and control, respectively.
compound,measurement,setting,value
"O=C1/C(=C/c2ccc(O)cc2O)SC(=S)N1Cc1ccccc1 [Compound 3, (Z)-3-Benzyl-5-(2,4-dihydroxybenzylidene)-2-thioxothiazolidin-4-one]",inhibition of cellular tyrosinase activity compared with kojic acid,[1]; 10 μM,more strongly than kojic acid
same,effect on stimulator-enhanced cellular tyrosinase activity,"[1]; 2, 5 and 10 μM, concentration-dependent",significantly decreased
same,relative dark area of cells compared with kojic acid at the same concentration,"B16F10 cell tyrosinase; 10 μM, L-DOPA staining",significantly less than that of kojic acid
same,number of cells strongly stained with melanin,"B16F10 cell tyrosinase; kojic acid 10 μM, analogs 2, 5 and 10 μM, α-MSH + IBMX, 72 h",reduced the number of strongly stained cells in a concentration-dependent manner
same,ROS-scavenging activity (SIN-1-induced ROS levels),[2],equipotent to that of Trolox
same,% ABTS^•+ scavenging,[3],98%
